The numbers were not newly measured in patent US7887828B2, “Dual action organic formulation to control two stages of insect pests” (ISCA Technologies, Inc., priority 2006, dated 2011), which cites them from elsewhere.

In series [1] the test system is gypsy moth larvae.
Series [2] concerns gypsy moth larvae. To be noted: 16 hours after a 2 minute crawling exposure to glass coated with a 4 mg/litre solution.
In series [3] the test system is mammalian and avian species. As to conditions: as indicated by DAS.
The subject of series [4] is gypsy moth larvae. To be noted: 3-day exposure; 13-day evaluation; 2nd instar larvae; treated red oak leaf disks.

spinosad: in the series with gypsy moth larvae [1] (3±50 mg/litre applied to run-off, ornamental style applications), the larval populations reduced was 95±100%. Besides, in the series with gypsy moth larvae [1] (application rate of 0.75 mg/litre), the population reduction entry is on record as “large population reductions”. In addition, in the series on gypsy moth larvae [1] (applied to foliage to run-off, laboratory potted red oak seedlings and field 4 m-tall birch trees), the “concentrations that effectively controlled 2nd instar larvae” value is 3 to 50 mg/L. In the series with gypsy moth larvae [2], the treated larvae paralyzed was 50%. For the same substance, in series [3], the “toxicity to mammalian and avian species” value is listed as “little or no toxicity”. Further, the LC50 with gypsy moth larvae [4] is recorded as 0.0015 mg AI/cm2.
